Key:
bermudagrass = experiment: Test C postemergence; format: in vivo, Cynodon dactylon; conditions: for Bermudagrass plant response rating: Postemergence, 31 g ai/ha, scale 0 to 100; for Plant response rating, Bermudagrass: postemergence
Text: (§1) Seeds of plant species selected from blackgrass (Alopecurus myosuroides), ryegrass, Italian (Italian ryegrass, Lolium multiflorum), wheat (winter wheat, Triticum aestivum), galium (catchweed bedstraw, Galium aparine), corn (Zea mays), crabgrass, large (large crabgrass, Digitaria sanguinalis), foxtail, giant (giant foxtail, Setaria faberii), johnsongrass (Sorghum halepense), lambsquarters (Chenopodium album), morningglory (Ipomoea coccinea), nutsedge, yellow (yellow nutsedge, Cyperus esculentus), pigweed (redroot pigweed, Amaranthus retroflexus), ragweed (common ragweed, Ambrosia elation), soybean (Glycine max), barnyardgrass (Echinochloa crus-galli), oilseed rape (Brassica napus), waterhemp (common waterhemp, Amaranthus rudis), oat, wild (wild oat, Avena fatua), kochia (Kochia scoparia), Surinam grass (Brachiaria decumbens), foxtail, green (green foxtail, Setaria viridis), goosegrass (Eleusine indica), bromegrass, downy (downy bromegrass, Bromus tectorum), nightshade (eastern black nightshade, Solanum ptycanthum), cocklebur (common cocklebur, Xanthium strumarium), cupgrass, woolly (woolly cupgrass, Eriochloa villosa), bermudagrass (Cynodon dactylon), sunflower, (common oilseed sunflower, Helianthus annuus), Russian thistle (Salsola kali), and velvetleaf (Abutilon theophrasti) were planted into a blend of loam soil and sand and treated preemergence with test chemicals formulated in a non-phytotoxic solvent mixture which included a surfactant.
(§2) At the same time, plants selected from these crop and weed species and also chickweed (common chickweed, Stellaria media), canarygrass (littleseed canarygrass, Phalaris minor), and deadnettle (henbit deadnettle, Lamium amplexicaule), were planted in pots containing Redi-Earth® planting medium (Scotts Company, 14111 Scottslawn Road, Marysville, Ohio 43041) comprising spaghnum peat moss, vermiculite, wetting agent and starter nutrients and treated with postemergence applications of test chemicals formulated in the same manner. Plants ranged in height from 2 to 18 cm (1- to 4-leaf stage) for postemergence treatments. Treated plants and controls were maintained in a greenhouse for 13 to 15 days, after which time all species were compared to controls and visually evaluated. Plant response ratings, summarized in Table C, are based on a scale of 0 to 100 where 0 is no effect and 100 is complete control. A dash (-) response means no test result.

Surinam grass = experiment: Test C postemergence; format: in vivo, Brachiaria decumbens; conditions: for Surinam Grass plant response rating: 62 g ai/ha, scale 0 to 100
Text: as §1, §2

cocklebur = experiment: Test C preemergence; format: in vivo, Xanthium strumarium
Text: as §1, §2

sunflower = experiment: Test C preemergence; format: in vivo, Helianthus annuus
Text: as §1, §2

goosegrass = experiment: Test C preemergence; format: in vivo, Eleusine indica
Text: as §1, §2

[1] = 250 g ai/ha, scale 0 to 100 (0 no effect, 100 complete control)
[2] = 62 g ai/ha, scale 0 to 100, 0 no effect, 100 complete control
[3] = 125 g ai/ha, scale 0 to 100, 0 no effect, 100 complete control
[4] = preemergence, 31 g ai/ha, scale 0 to 100 (0 no effect, 100 complete control), 13 to 15 days
[5] = preemergence, 62 g ai/ha, 13 to 15 days, scale 0 to 100, 0 = no effect, 100 = complete control
[6] = preemergence, 125 g ai/ha, scale 0 to 100, 0 is no effect, 100 is complete control

SMILES | Bermudagrass plant response rating (bermudagrass) | Plant response rating, Bermudagrass (bermudagrass; [1]) | Plant response rating, Bermudagrass (bermudagrass; [2]) | Plant response rating, Bermudagrass (bermudagrass; [3]) | Surinam Grass plant response rating (Surinam grass) | Plant response rating, Surinam Grass (Surinam grass; [3]) | Plant response rating, Surinam Grass (Surinam grass; [1]) | Plant response rating (scale of 0 to 100), Cocklebur (cocklebur; Preemergence, 250 g ai/ha) | Cocklebur plant response rating (cocklebur; [4]) | Plant response rating, Cocklebur (cocklebur; [5]) | Cocklebur plant response rating (cocklebur; [6]) | Plant response rating (scale of 0 to 100), Sunflower (sunflower; Preemergence, 250 g ai/ha) | Sunflower plant response rating (sunflower; [4]) | Plant response rating, Sunflower (sunflower; [5]) | Sunflower plant response rating (sunflower; [6]) | Plant response rating (scale of 0 to 100), Goosegrass (goosegrass; Preemergence, 250 g ai/ha) | Goosegrass plant response rating (goosegrass; [4]) | Plant response rating, Goosegrass (goosegrass; [5]) | Goosegrass plant response rating (goosegrass; [6])
CCc1cc(C(=O)NCC(F)(F)F)nn1Cc1cccc(OC(F)(F)F)c1 [Compound 20] | 5 | 45 | 5 | 15 | 5 | 10 | 10 | – | – | – | – | – | – | – | – | – | – | – | –
CCCNC(=O)c1cc(CC)n(Cc2cccc(OC(F)(F)F)c2)n1 [Compound 27] | 0 | 25 | 5 | 5 | 5 | 10 | 10 | – | – | – | – | – | – | – | – | – | – | – | –
CCc1cc(C(=O)NOC(C)C)nn1Cc1cccc(OC(F)(F)F)c1 [Compound 70] | 5 | 10 | 5 | 10 | 10 | 20 | 30 | 100 | 0 | 0 | 45 | 5 | 0 | 0 | 5 | 98 | 60 | 80 | 95
